Experimental data from patent US20080318957A1, “POLYBASIC BACTERIAL EFFLUX PUMP INHIBITORS AND THERAPEUTIC USES THEREOF” (priority 2007, published 2008).

What follows are molecules tested on strain of P. aeruginosa, PAM1723, overexpressing the MexAB-OprM efflux pump (assay: checkerboard assay, levofloxacin potentiating activity (broth microdilution)). Conditions: lowest inhibitor concentration giving antibacterial activity with levofloxacin at 1/32 of its MIC; MHB, 20 h, 35° C.
Type: cell-based
Procedure: All EPI compounds were readily soluble in water and stock solutions were prepared at a final concentration of 10 mg/ml. Stock solutions were further diluted, according to the needs of the particular assay, in Mueller Hinton Broth (MHB). Stock solution was stored at −80° C.
The checkerboard assay was performed in microtiter plates. […] EPIs were diluted in the y-axis, each row containing a single concentration of an EPI. The result of these manipulations was that each well of the microtiter plate contained a unique combination of concentrations of the two agents. The assay was performed in MHB with a final bacterial inoculum of 5 times 10^5 CFU/ml (from an early-log phase culture). Microtiter plates were incubated during 20 h at 35° C. and were read using a microtiterplate reader (Molecular Devices) at 650 nm as well as visual observation using a microtiter plate-reading mirror.

SMILES	MPC32 (Minimum Potentiating Concentration) [µg/mL]
NCCN(CCN)C(=O)CC[C@H](N)C(=O)N[C@H](Cc1ccc(C(F)(F)F)cc1)C(=O)Nc1cnc2ccccc2c1 [Compound 1, 3-[(1S)-3-[bis(2-azaniumylethyl)carbamoyl]-1-{[(1R)-1-carbamoyl-2-[4-(trifluoromethyl)phenyl]ethyl]carbamoyl}propan-1-aminium]quinolin-1-ium tetrachloride]	0.6
NCCN(CCN)C(=O)C[C@H](N)C(=O)N[C@@H](CCc1ccccc1)C(=O)Nc1cnc2ccccc2c1 [Compound 2]	5
NCCN(CCN)C(=O)CC[C@H](N)C(=O)N[C@H](C(=O)Nc1cnc2ccccc2c1)[C@H](O)c1ccc(C(F)(F)F)cc1 [Compound 3, 3-[(1S)-3-[bis(2-azaniumylethyl)carbamoyl]-1-{[(1S,2R)-1-carbamoyl-2-hydroxy-2-[4-(trifluoromethyl)phenyl]ethyl]carbamoyl]propan-1-aminium]quinolin-1-ium tetrachloride]	>10
CN(C(=O)[C@@H](N)CCC(=O)N(CCN)CCN)[C@@H](Cc1ccc(C(F)(F)F)cc1)C(=O)Nc1cnc2ccccc2c1 [Compound 5, 3-[(1S)-3-[bis(2-azaniumylethyl)carbamoyl]-1-{[(1S)-1-carbamoyl-2-[4-(trifluoromethyl)phenyl]ethyl](methyl)carbamoyl}propan-1-aminium]quinolin-1-ium tetrachloride]	>10
NCCN(CCN)C(=O)CC[C@H](N)C(=O)N/C(=C/c1ccc(C(F)(F)F)cc1)C(=O)Nc1cnc2ccccc2c1 [Compound 4, 3-[(1S)-3-[bis(2-azaniumylethyl)carbamoyl]-1-{[(1E)-1-carbamoyl-2-[4-(trifluoromethyl)phenyl]eth-1-en-1-yl]carbamoyl}propan-1-aminium]quinolin-1-ium tetrachloride]	2.5
